ChEMBL document CHEMBL5137065, “Recent Advances with KDM4 Inhibitors and Potential Applications” (J Med Chem, 2022)
Positions of bridges follow the written chain, without caps; N, C: chain ends. Non-standard residues stand in square brackets, D forms with d. Residues, ends and D or L forms follow the SMILES beside them.

Tests used:
KYSE-150 cell line = test: Antiproliferative activity against human KYSE-150 cells; assay type: functional
HL-60 = test: Antiproliferative activity against human HL-60 cells; assay type: functional
[1] = biological target: T1, Lysine-specific demethylase 4A (Homo sapiens, UniProt O75164); test: Inhibition of KDM4A in human KYSE-150 cells assessed as increase in H3K9me3 level; assay type: cell-based, KYSE-150 cell line
T1 sequence (O75164 whole entry): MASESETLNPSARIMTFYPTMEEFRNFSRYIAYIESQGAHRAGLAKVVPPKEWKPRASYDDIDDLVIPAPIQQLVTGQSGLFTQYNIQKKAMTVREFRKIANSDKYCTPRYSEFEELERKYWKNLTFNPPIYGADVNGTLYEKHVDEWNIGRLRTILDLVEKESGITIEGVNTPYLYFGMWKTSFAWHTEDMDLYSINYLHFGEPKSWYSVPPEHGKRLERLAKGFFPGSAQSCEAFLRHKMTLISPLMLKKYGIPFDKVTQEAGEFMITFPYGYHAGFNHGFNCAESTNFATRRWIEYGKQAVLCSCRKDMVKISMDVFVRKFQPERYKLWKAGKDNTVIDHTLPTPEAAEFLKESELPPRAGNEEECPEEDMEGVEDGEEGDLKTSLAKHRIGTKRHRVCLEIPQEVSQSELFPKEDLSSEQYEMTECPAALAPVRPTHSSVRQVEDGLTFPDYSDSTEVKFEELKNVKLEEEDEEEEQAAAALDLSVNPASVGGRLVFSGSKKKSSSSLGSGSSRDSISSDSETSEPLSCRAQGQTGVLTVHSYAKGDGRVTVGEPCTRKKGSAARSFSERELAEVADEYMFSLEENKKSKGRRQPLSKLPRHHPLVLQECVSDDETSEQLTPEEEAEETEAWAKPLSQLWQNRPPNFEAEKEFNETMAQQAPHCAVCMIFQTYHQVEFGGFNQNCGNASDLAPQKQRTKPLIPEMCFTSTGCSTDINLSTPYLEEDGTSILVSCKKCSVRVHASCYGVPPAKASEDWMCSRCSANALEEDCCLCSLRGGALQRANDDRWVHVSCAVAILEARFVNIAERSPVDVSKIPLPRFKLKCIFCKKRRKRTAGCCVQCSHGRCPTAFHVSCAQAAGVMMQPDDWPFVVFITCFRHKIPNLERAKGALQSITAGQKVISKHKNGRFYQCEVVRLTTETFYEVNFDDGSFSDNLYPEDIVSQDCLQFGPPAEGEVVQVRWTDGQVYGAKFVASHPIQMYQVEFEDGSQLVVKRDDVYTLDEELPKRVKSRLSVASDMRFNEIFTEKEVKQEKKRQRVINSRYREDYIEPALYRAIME

[2] = biological target: T2, Lysine-specific demethylase 2A (Homo sapiens, UniProt Q9Y2K7); test: Inhibition of KDM2A in human MIA PaCa-2 cells assessed as induction of H3K36me2 measured by immunofluorescence assay; assay type: cell-based
T2 sequence (Q9Y2K7 whole entry): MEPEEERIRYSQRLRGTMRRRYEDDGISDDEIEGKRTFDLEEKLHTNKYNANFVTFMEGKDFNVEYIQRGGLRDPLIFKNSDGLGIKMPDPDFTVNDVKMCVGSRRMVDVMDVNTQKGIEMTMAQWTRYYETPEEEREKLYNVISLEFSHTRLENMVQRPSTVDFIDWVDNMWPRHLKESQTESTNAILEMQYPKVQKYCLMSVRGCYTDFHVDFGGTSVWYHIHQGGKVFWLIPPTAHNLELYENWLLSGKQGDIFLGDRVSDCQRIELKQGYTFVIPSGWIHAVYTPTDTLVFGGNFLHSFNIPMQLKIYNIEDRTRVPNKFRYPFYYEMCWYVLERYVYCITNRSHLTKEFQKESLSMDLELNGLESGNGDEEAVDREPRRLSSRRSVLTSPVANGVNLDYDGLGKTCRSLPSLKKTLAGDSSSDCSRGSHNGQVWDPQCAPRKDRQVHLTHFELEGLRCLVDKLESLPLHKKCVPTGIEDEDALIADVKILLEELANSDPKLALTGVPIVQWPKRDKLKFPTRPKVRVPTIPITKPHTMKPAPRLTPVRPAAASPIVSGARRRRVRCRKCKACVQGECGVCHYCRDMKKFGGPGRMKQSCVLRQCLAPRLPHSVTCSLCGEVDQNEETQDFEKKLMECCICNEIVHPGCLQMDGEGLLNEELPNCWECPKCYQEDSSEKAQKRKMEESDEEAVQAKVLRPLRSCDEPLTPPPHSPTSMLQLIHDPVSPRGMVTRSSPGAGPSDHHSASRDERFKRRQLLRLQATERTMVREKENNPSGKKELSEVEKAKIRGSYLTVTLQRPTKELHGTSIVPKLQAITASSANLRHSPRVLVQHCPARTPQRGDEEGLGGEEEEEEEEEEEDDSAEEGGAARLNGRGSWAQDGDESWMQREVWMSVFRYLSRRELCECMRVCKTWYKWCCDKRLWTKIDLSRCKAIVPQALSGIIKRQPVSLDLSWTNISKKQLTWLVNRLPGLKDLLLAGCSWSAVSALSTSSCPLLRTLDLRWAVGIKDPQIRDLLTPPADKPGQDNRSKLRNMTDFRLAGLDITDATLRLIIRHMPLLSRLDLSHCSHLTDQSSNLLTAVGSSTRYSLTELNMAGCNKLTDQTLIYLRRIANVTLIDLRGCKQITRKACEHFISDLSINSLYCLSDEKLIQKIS

[3] = biological target: T1, Lysine-specific demethylase 4A
[4] = biological target: Lysine-specific demethylase 6B (Homo sapiens, UniProt O15054); test: Inhibition of KDM6B (unknown origin) measured by AlphaScreen assay
Chain of Lysine-specific demethylase 6B (O15054 whole entry): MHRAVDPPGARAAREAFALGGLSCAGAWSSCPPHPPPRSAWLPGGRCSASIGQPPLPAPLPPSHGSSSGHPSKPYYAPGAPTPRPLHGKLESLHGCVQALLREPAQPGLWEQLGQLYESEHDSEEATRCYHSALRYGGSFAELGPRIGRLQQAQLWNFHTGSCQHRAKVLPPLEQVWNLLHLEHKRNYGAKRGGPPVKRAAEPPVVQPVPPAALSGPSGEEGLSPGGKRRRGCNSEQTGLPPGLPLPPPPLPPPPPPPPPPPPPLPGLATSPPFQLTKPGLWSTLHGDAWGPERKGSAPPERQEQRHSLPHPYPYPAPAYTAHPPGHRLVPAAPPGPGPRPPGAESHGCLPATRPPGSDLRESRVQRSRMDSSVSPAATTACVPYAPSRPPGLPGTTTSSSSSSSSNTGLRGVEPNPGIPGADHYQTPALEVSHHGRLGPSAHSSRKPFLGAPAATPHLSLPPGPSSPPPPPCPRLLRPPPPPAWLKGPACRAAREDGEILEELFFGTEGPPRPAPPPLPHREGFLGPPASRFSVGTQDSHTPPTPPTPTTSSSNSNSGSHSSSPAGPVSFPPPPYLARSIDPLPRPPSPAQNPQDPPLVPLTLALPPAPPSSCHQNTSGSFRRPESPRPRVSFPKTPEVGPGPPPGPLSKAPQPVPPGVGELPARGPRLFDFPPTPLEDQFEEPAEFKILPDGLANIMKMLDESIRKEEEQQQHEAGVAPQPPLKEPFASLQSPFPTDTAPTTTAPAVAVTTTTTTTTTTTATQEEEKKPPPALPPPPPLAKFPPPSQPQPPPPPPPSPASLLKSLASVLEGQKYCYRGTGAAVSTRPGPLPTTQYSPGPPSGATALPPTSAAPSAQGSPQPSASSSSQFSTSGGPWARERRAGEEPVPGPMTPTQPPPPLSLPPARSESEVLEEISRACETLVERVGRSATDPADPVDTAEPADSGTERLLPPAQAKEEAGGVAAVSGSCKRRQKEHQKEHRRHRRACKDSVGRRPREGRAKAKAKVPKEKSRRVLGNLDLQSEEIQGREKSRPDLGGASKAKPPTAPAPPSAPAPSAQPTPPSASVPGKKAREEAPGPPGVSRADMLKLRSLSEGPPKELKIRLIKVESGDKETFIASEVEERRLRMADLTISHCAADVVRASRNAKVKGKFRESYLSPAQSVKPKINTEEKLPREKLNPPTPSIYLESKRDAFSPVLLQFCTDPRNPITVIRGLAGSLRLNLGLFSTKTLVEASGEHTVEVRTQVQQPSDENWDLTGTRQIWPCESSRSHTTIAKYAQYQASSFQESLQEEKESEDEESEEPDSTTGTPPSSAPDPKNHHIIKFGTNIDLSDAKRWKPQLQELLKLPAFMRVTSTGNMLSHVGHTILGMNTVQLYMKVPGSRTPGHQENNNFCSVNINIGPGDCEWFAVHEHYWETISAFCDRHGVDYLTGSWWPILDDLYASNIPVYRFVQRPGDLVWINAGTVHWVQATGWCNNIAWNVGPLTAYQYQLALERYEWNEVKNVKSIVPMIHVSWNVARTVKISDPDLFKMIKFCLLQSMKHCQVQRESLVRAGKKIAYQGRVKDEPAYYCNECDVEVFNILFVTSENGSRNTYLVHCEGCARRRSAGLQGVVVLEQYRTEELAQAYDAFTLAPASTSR

[5] = biological target: T3, Lysine-specific demethylase 4C (Homo sapiens, UniProt Q9H3R0); test: Inhibition of KDM4C (unknown origin) measured by AlphaScreen assay
T3 sequence (Q9H3R0 whole entry): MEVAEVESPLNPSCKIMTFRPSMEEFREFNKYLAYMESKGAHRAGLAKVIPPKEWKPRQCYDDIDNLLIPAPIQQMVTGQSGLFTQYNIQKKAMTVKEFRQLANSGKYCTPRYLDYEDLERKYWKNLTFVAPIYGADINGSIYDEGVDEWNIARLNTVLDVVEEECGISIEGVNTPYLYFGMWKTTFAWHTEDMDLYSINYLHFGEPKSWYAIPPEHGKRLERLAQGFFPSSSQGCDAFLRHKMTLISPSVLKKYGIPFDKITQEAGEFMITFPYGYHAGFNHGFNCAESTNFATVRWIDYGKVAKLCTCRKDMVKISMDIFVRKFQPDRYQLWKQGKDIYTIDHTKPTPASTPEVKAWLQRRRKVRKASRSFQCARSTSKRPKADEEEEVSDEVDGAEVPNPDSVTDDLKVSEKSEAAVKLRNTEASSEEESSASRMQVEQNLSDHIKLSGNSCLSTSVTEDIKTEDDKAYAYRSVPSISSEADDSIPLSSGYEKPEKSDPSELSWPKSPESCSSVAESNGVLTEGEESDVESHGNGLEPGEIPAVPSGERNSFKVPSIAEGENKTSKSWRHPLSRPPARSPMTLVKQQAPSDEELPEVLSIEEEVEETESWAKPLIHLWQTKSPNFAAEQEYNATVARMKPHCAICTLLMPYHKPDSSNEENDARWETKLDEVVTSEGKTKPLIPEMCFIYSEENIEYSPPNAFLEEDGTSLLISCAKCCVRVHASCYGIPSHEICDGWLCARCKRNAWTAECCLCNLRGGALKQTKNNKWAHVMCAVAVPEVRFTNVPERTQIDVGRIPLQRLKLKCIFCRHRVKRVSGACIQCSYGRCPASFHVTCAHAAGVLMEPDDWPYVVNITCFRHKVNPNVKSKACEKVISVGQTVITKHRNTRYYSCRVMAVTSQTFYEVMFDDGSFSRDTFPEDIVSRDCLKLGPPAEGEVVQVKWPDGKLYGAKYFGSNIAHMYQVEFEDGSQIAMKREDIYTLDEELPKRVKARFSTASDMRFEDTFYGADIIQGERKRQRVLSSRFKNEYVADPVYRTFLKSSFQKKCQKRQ

[6] = biological target: T4, Lysine-specific demethylase 4B (Homo sapiens, UniProt O94953); test: Inhibition of KDM4B (unknown origin) measured by AlphaScreen assay
T4 sequence (O94953 whole entry): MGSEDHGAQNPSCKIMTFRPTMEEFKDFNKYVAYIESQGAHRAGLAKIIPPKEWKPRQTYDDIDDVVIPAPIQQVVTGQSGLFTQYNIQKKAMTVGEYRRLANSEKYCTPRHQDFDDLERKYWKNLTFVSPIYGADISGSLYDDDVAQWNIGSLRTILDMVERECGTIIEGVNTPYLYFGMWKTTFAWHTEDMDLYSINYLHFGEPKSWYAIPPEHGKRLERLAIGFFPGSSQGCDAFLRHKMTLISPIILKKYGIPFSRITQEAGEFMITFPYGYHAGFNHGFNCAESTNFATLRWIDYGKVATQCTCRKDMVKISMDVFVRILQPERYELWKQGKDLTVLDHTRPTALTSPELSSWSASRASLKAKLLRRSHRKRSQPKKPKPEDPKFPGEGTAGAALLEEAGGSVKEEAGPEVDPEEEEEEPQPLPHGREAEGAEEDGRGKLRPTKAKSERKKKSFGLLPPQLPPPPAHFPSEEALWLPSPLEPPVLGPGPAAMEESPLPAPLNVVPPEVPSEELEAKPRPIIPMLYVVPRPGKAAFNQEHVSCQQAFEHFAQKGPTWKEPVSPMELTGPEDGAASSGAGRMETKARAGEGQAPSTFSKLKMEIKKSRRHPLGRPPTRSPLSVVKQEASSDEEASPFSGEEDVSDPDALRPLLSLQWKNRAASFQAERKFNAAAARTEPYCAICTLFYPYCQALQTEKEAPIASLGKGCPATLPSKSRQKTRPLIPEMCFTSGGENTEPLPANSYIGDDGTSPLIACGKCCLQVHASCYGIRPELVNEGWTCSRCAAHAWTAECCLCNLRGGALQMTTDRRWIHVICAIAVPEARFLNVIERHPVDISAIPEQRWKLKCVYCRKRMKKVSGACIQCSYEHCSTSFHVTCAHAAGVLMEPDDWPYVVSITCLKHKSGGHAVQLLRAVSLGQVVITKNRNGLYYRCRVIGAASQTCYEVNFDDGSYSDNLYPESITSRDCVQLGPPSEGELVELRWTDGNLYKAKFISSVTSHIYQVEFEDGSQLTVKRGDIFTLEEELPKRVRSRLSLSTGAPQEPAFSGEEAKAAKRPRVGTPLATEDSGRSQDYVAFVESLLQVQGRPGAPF

[7] = biological target: Lysine-specific demethylase 5A (Homo sapiens, UniProt P29375); test: Inhibition of KDM5A (unknown origin) measured by AlphaScreen assay
Chain of Lysine-specific demethylase 5A (P29375 whole entry): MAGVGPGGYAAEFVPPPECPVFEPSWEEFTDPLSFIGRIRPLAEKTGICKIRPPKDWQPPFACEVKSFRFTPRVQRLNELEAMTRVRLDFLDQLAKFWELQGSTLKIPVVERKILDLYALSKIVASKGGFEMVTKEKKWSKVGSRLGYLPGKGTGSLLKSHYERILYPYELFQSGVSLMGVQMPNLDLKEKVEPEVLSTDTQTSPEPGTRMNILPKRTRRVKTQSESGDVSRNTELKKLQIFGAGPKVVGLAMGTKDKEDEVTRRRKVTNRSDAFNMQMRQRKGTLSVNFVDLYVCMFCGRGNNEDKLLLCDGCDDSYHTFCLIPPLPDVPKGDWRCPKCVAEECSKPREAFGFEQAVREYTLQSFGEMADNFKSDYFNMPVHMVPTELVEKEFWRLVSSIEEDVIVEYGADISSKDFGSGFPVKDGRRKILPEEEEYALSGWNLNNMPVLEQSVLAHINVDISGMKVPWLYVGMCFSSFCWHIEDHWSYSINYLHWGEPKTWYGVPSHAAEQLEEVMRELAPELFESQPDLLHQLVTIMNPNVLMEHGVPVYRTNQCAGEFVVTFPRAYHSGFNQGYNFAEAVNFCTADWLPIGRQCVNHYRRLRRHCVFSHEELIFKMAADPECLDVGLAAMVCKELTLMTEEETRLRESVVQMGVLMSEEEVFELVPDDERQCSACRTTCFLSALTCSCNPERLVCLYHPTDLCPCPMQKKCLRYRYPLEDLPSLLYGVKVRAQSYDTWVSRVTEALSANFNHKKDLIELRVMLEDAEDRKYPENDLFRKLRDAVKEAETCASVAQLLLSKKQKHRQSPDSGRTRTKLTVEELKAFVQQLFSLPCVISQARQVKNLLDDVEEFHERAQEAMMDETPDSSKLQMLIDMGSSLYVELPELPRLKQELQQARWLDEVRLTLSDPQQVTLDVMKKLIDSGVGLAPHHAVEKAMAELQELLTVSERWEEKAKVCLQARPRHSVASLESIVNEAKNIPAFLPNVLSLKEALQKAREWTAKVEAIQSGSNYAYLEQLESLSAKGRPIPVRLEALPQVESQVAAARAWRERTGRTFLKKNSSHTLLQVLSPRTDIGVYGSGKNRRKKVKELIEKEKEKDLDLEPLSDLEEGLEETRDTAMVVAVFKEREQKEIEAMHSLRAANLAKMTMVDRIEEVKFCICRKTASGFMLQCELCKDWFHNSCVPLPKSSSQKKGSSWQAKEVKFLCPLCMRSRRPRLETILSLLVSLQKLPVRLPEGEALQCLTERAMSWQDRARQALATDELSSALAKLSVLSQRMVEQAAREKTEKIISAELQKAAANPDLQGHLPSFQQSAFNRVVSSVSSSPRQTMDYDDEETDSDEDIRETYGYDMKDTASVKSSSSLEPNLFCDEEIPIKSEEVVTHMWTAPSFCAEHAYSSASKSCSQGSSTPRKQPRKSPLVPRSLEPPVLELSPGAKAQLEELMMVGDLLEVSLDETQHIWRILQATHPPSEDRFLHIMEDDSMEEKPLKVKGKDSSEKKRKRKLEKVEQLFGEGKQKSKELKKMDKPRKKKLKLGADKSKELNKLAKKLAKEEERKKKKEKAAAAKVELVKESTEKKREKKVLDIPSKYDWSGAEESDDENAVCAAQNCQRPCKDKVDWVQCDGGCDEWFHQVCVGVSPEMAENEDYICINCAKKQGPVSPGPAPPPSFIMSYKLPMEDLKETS

[8] = biological target: T1, Lysine-specific demethylase 4A; test: Inhibition of KDM4A (unknown origin) measured by AlphaScreen assay
[9] = biological target: T1, Lysine-specific demethylase 4A; test: Inhibition of KDM4A (unknown origin) measured by formaldehyde dehydrogenase (FDH)-coupled fluorescence assay
[10] = biological target: T1, Lysine-specific demethylase 4A; test: Inhibition of KDM4A (unknown origin) measured by LANCEUltra assay

## Oc1ccccc1-c1nc(-c2ccccc2O)n(-c2ccccc2)n1
KYSE-150 cell line
  GI50: 0.45 µM
HL-60
  GI50: 1.7 µM
[1]
  EC50: 3.3 µM

## COC(=O)c1ccc(-n2nc(-c3ccccc3O)nc2-c2ccccc2O)cc1
KYSE-150 cell line
  GI50: 0.45 µM
HL-60
  GI50: 1.7 µM
[1]
  EC50: 10 µM

## CCCCCC[n+]1ccccc1C=Cc1ccc(N(C)C)cc1
[2]
  IC50: 0.28 µM
[3]
  IC50: 0.28 µM

## CO[C@H]1/C=C\C=C(/C)C(=O)NC2=CC(=O)C(NCCN(C)C)=C(C[C@@H](C)C[C@H](OC)[C@H](O)[C@@H](C)/C=C(\C)[C@@H]1OC(N)=O)C2=O (stereo in doubt) [ALVESPIMYCIN]
[4]
  IC50: 0.4 µM
[5]
  IC50: 0.7 µM
[6]
  IC50: 0.7 µM
[7]
  IC50: 0.13 µM

## C=CCNC1=C2C[C@@H](C)C[C@H](OC)[C@H](O)[C@@H](C)/C=C(\C)[C@H](OC(N)=O)[C@@H](OC)/C=C\C=C(/C)C(=O)NC(=CC1=O)C2=O (stereo in doubt) [TANESPIMYCIN]
[4]
  IC50: 0.4 µM
[6]
  IC50: 0.7 µM
[7]
  IC50: 0.13 µM

## CC[C@H](C)[C@@H]1NC(=O)CNC(=O)[C@H](CO)NC(=O)[C@H](CCCNC(=N)N)NC(=O)[C@H](CCCNC(=N)N)NC(=O)[C@H](Cc2ccccc2)NC(=O)[C@H](CCCNC(=N)N)NC(=O)[C@H]([C@@H](C)O)NC(=O)[C@@H](Cc2ccc(O)cc2)NC(=O)CSC[C@@H](C(N)=O)NC(=O)[C@H](Cc2ccc(O)cc2)NC(=O)[C@H](Cc2ccc(O)cc2)NC(=O)[C@H](Cc2ccccc2)NC(=O)[C@H](C(C)C)NC1=O ({CH2CO}-[dY]TRFRRSGIVFYYC-NH2; thioether N-14)
[5]
  IC50: 0.0022 µM
[8]
  IC50: 0.006 µM

## CC(C)[C@@H]1NC(=O)[C@@H](Cc2ccc(O)cc2)NC(=O)CSC[C@@H](C(N)=O)NC(=O)[C@H]([C@@H](C)O)NC(=O)[C@H](Cc2ccc(O)cc2)NC(=O)[C@H](Cc2c[nH]c3ccccc23)NC(=O)[C@H](CCCNC(=N)N)NC(=O)[C@H](Cc2c[nH]c3ccccc23)NC(=O)CNC(=O)[C@H](CO)NC(=O)[C@H](CCCNC(=N)N)NC(=O)[C@H]([C@@H](C)O)NC(=O)[C@H](CC(N)=O)NC(=O)[C@H](Cc2ccc(O)cc2)NC1=O ({CH2CO}-[dY]VYNTRSGWRWYTC-NH2; thioether N-14)
[5]
  IC50: 0.033 µM
[8]
  IC50: 0.033 µM

## O=C(O)c1ccc(-n2nc(-c3ccccc3O)nc2-c2ccccc2O)cc1 [DEFERASIROX]
KYSE-150 cell line
  GI50: 3.3 µM
[9]
  IC50: 3.22 µM
HL-60
  GI50: 5.5 µM
[10]
  IC50: 3.33 µM
[1]
  EC50: 40.5 µM

## Cc1c(O)c(=O)ccn1C [DEFERIPRONE]
[9]
  IC50: 3.22 µM
[10]
  IC50: 3.33 µM

## CC(=O)N(O)CCCCCNC(=O)CCC(=O)N(O)CCCCCNC(=O)CCC(=O)N(O)CCCCCN [DEFEROXAMINE]
[9]
  IC50: 3.22 µM
[10]
  IC50: 3.33 µM

## COC1=C2C[C@@H](C)C[C@H](OC)[C@H](O)[C@@H](C)/C=C(\C)[C@H](OC(N)=O)[C@@H](OC)/C=C\C=C(/C)C(=O)NC(=CC1=O)C2=O [GELDANAMYCIN]
[4]
  IC50: 0.4 µM
[5]
  IC50: 0.7 µM
[7]
  IC50: 0.13 µM
